What was measured:
[1] = test system: MPXV^Zr-599 (Clade I); test: microbe, parasite or virus in culture; type: cell-based; conditions: Monkeypox virus, Vero C1008, 120 h, read-out: EC50 against MPXV^Zr-599
[2] = test system: MPXV^Liberia (Clade IIa); test: microbe, parasite or virus in culture; type: cell-based; conditions: Monkeypox virus, Vero C1008, 120 h, read-out: EC50 against MPXV^Liberia
[3] = test system: MPXV^SPL2A7 (Clade IIb); test: microbe, parasite or virus in culture; type: cell-based; conditions: Monkeypox virus, Vero C1008, 120 h, read-out: EC50 against MPXV^SPL2A7
[4] = test system: VeroE6 cells
[5] = test system: VeroE6 cells; remark: listed apart in the source
[6] = test system: Huh7 cells; conditions: for concentration at which the agent showed cytotoxicity, reducing the number of cells: human
[7] = test system: HeLa cells; conditions: for concentration at which the agent showed cytotoxicity, reducing the number of cells: human
[8] = in vitro; conditions: human
[9] = in vitro; conditions: human; remark: listed apart in the source
[10] = test system: MPXV^SPL2A7
[11] = test system: clade II mpox; conditions: human, in vivo; cited from earlier work
[12] = test system: clade I mpox; conditions: human, in vivo; cited from earlier work
[13] = in vitro; conditions: African green monkey

SMILES | EC50 [1] [nM] | EC50 [2] [nM] | EC50 [3] [nM] | amount of F-actin (images) [4] | protein production (F-actin quantification), in words [4] | number of cells (DAPI) [5] | concentration at which the agent showed cytotoxicity, reducing the number of cells [6] [µM] | concentration at which the agent showed cytotoxicity, reducing the number of cells [7] [µM] | cell number on day 5 subtracted with cell number on Day 0 [5] | CC50 [8] [nM] | CC50 [9] [nM] | cytostaticity and/or cytotoxicity (in words) [6] | cytostaticity and/or cytotoxicity (in words) [7] | concentration at which production of virally-encoded proteins was blocked (and above) [10] [µM] | number of the cells (nuclei stained with DAPI) [10] | suppression of protein production (F-actin quantification) [4] | clinical efficacy [11] | duration of mpox lesions [12] | CC50 [13] [nM]
Nc1ccn([C@@H]2O[C@H](CO)[C@@H](O)C2(F)F)c(=O)n1 [Gemcitabine, gemcitabine] | 20 ± 20 | 10 ± 10 | 20 ± 20 | greatly reduced | totally blocked | significant reduction | – | – | – | – | – | – | – | – | – | – | – | – | –
CCCCCCCCCCCCCCCCOCCCOP(=O)(O)CO[C@H](CO)Cn1ccc(N)nc1=O [Brincidofovir, brincidofovir] | 2130 ± 950 | 2010 ± 850 | 2030 ± 320 | markedly reduced | virtually totally blocked | – | 10 to 100 | 10 to 100 | below zero | – | – | – | – | – | – | – | – | – | –
Nc1ccn(C[C@@H](CO)OCP(=O)(O)O)c(=O)n1 [Cidofovir, cidofovir] | 17300 ± 5030 | 15200 ± 3020 | 12200 ± 1190 | – | virtually totally blocked | – | 100 | 100 | below zero | > 100000 | > 100000 | – | – | – | – | – | – | – | –
O=c1[nH]c(=O)n([C@H]2C[C@H](O)[C@@H](CO)O2)cc1C(F)(F)F [Trifluridine, trifluridine] | 3710 ± 1450 | 3480 ± 1820 | 6170 ± 1260 | – | – | – | – | – | – | – | – | – | – | – | – | – | – | – | –
O=C(NN1C(=O)[C@@H]2[C@@H]3C=C[C@@H]([C@H]4C[C@@H]34)[C@@H]2C1=O)c1ccc(C(F)(F)F)cc1 [Tecovirimat, tecovirimat] | 5 ± 1 | 4 ± 2 | 1 ± 2 | – | – | – | – | – | – | > 100000 | > 100000 | without cytostaticity and/or cytotoxicity | without cytostaticity and/or cytotoxicity | ≥ 0.01 | no significant reduction | about 50% | no significant efficacy | failed to shorten the duration of mpox lesions | > 100000
